# According to the NIST ThermoML archive (doi:10.1016/j.fluid.2007.10.010):
# ± gives the expanded uncertainty stated by the source.
# Legend:
# [1] = 298.15 K; 101.33 kPa; Liquid; Vibrating tube method
# [2] = refractive index (Na D-line) (dimensionless); conditions: 298.15 K; 101.33 kPa; Liquid; Standard Abbe refractometry
SMILES,mass density [1] [kg/m3],refractive index [2]
CCCCCCC [heptane],679.466 ± 0.26,1.38517 ± 0.00068
CCCCCCCCCCCCCCCC [hexadecane],771.15 ± 0.3,1.43232 ± 0.0007
c1ccsc1 [thiophene],1058.5 ± 0.23,1.52581 ± 0.00068
CCCCCCCCn1cc[n+](C)c1.O=S(=O)([N-]S(=O)(=O)C(F)(F)F)C(F)(F)F,1320.76 ± 12,1.43331 ± 0.0012
CCCCCC [hexane],655.06 ± 0.31,1.37287 ± 0.0007
